Earlier results in patent publication US6458389B1 (priority 1997, dated 2002).
Like-named read-outs stand apart in the source and are kept apart here.

What was measured:
mice = mice treated orally, toxic dose of 70 mg/kg
rats = conditions: rat, in vivo, iv

N.N.[Cl][Pt][Cl] [cisplatin]
Histopathological change in the kidneys (mice): No histopathological change in the kidneys | Urea concentrations in the blood, multiplication factor (rats): 14 | Electron microscope analysis of tissues (kidneys) (48 hours after oral administration): only slight changes in the kidneys | Electron microscope analysis of tissues (kidneys) (intravenous administration): symptoms of nephrotoxicity are observable
